The EC50 is the midpoint of the concentration-response curve.

Read-outs that look alike come from different tables or passages of the source.

From US20140127157A1, “ANTIVIRAL ACTIVITY OF TYROSINE KINASE INHIBITORS AGAINST HEPATITUS C VIRUS” (priority 2012, published 2014) come the findings set out here.

One data set concerns HCV entry. The format is cell-based, Hepatitis C virus (HCV). The note with it: binding 1.5 h at 4° C., shift to 37° C., compound added at 20 min intervals up to 2 h; luciferase after 48 h.
A short description of another data set: in vitro. The note with it: human. From the text: (§1) The infectious cell culture system for HCV (HCVcc) is based on a unique full length strain of genotype 2a derived from a patient with fulminant hepatitis (JFH-1). HCVcc allows the complete virus life cycle to be studied in cell culture. A chimeric strain of JFH-1, termed Jc1JFH, is capable of more robust growth in tissue culture and can be engineered to encode a reporter gene. The activity of compounds such as nilotinib against HCVcc can be investigated using a Jc1JFH reporter virus encoding luciferase (Table 1). Naïve Huh-7.5 cells are treated with serially diluted compounds in DMSO for 2 h prior to infection with HCVcc. […] Both EC50 and CC50 values are normalized to cells treated with DMSO alone.

Data set [1] relates to HCVcc. Nature of the data set: microbe, parasite or virus in culture. Conditions: for EC50: Hepatitis C virus.
Text: as §1

The next data set deals with HCVrep. The data set can be described thus: HCV replicon (HCVrep) luciferase assay, JFH-1-based replicon cell line. Set-up: species or system Hepatitis C virus (HCV). The text has this: (§2) HCVrep comprises a stable cell line harboring a sub-genomic replicon encoding a selectable marker (e.g., neomycin phosphotransferase), a reporter gene (e.g., luciferase) and the minimal HCV replicase proteins, NS3 to NS5B. Since the subgenomic replicon is non-infectious, the HCVrep system is used to study viral RNA replication independently of other stages of the life cycle, including virus entry/assembly/release. […] To determine the effects of compounds such as nilotinib on HCV RNA replication, a stable JFH-1-based replicon cell line encoding luciferase was established.
For orientation: In antiviral work, replicon cells carry a viral genome segment that copies itself.

Data set [2] concerns HCVcc. Nature of the data set: Time of addition experiment with HCVcc (FIG. 1). It is filed as cell-based, Hepatitis C virus (HCV). Conditions: treatment 1 (compound during first 4 h of infection) vs treatment 2 (added 4 h post-infection); luciferase at 72 h. Here is the method: FIG. 1. The effect of agents added before or after entry of HCV into cells. The presence of compound during both binding and post-binding are indicated by black bars; white bars indicate compounds present only at post-binding. DMSO, dimethyl sulfoxide; 5Ainh, HCV NS5A inhibitor (50×EC50); nilotinib (50×EC50); α-CD81, anti-CD81 antibody (1 μg/mL); α-IgG, iso-type control antibody (1 μg/mL).
To further explore the MOA of compounds such as nilotinib, a time of addition experiment is performed to determine whether the compound acted at an early (i.e., entry) or late (i.e., assembly/release) stage of the virus life cycle. Naive Huh7.5 cells are infected for 4 h with HCVcc in either the presence (treatment 1) or absence (treatment 2) of compound. At 4 h post-infection, compound is then added to the treatment 2 cells. At 72 h post infection, luciferase activity is determined. An inhibitor of viral entry (antibody targeting CD81) and an HCV replication inhibitor (5Ainh) are used as comparators.

A short description of data set [3]: Cytotoxicity in HCVrep cell line.
Text: as §1, §2

Where [4] appears, read: Table 2, ratio of cytotoxicity to antiviral potency.

Experimental for HCV entry: The effect of agents added during entry of HCV into cells-. HCV kinetic entry assay in the presence of compounds.
In this assay, infection is synchronized by incubation of cells and virus together for 1.5 h at 4° C. to allow binding, but not subsequent entry steps. After synchronization, unbound virus is removed by washing, and cells are shifted to 37° C. to initiate post-binding events. Compounds are added either immediately prior to (time zero), or at 20 min intervals post-temperature shift for up to 2 h. Compounds are removed at 4 h post-addition and luciferase activity is measured after 48 h of infection. Controls are included, which are known to block various steps of the HCV entry process: heparin sulfate (virus binding), anti-CD81 antibody (early post-virus binding), concanamycin A (ConA; late post-virus binding), bafilomycin (Baf; late post-virus binding), gefitinib (Gef; late post-virus binding). Percent inhibition is determined relative to treatment with compounds during synchronized virus binding at 4° C. Representative data of percent inhibition versus time of addition (FIG. 2) is used to estimate half-maximal times (t1/2) to inhibit HCV entry.

As to heparin sulfate, in the data set on HCV entry, the “inhibition kinetics of HCV entry versus time of addition (t1/2)” value is listed as “effectively blocks infection only when present during virus binding”.

`C#Cc1cccc(Nc2ncnc3cc(OCCOC)c(OCCOC)cc23)c1` [Erlotinib, erlotinib] came in with a CC50 in the data set “in vitro” greater than 25 µM. Besides, the EC50 with HCVcc [1] (Huh7.5) is 0.47 µM.

Consider `Cc1ccc(NC(=O)c2ccc(CN3CCN(C)CC3)cc2)cc1Nc1nccc(-c2cccnc2)n1` [Imatinib, imatinib], for which, in the data set on HCVrep (at the concentrations tested), the “activity against the replicon” value is given as “did not show activity at the concentrations tested”.

As to `Cc1ccc(NC(=O)c2ccc(CN3CCN(C)CC3)cc2)cc1Nc1nc(-c2cccnc2)cs1` [Masitinib, masitinib], in “in vitro”, the CC50 was 6.27 µM. Further, the EC50 in the data set on HCVcc [1] (Huh7.5) came out at 0.77 µM. Also, in the data set with HCVcc [1] (setting [4]), the CC50/EC50 was 14.58.

`CNC(=O)c1cc(Oc2ccc(NC(=O)Nc3ccc(Cl)c(C(F)(F)F)c3)c(F)c2)ccn1` [Regorafenib, regorafenib]: the CC50 in the data set “in vitro” was greater than 2.5 µM. In the data set with HCVcc [1] (Huh7.5), this compound showed an EC50 of 0.33 µM.

In the case of `Cc1cn(-c2cc(NC(=O)c3ccc(C)c(Nc4nccc(-c5cccnc5)n4)c3)cc(C(F)(F)F)c2)cn1` [Nilotinib, nilotinib], the EC50 in the data set on HCVrep (Hepatitis C virus, JFH-1-based replicon cell line, 72 h treatment) was 4200 nM; with HCVcc [1] (Huh7.5) it was 0.04 µM; in the data set on HCVcc [1] (Huh7.5, read-out: HCVcc (EC50, μM)) it was 0.04 µM. Further, the CC50 in “in vitro” is 8.77 µM; in the data set “in vitro” (HCVcc (CC50, μM), uninfected compound-treated cells, CellTiter Glo), 8.8 µM. Further, in the data set with HCVcc [2], the “potency when added during versus after HCV entry” value is recorded as “significantly more potent when added during the first 4 h of infection”. In data set [3], this compound came in with a CC50 at 72 h of 8200 nM. Also, in the data set with HCVcc [1], the CC50/EC50 is 219.25.

On to `COc1cc2ncnc(Nc3ccc(F)c(Cl)c3)c2cc1OCCCN1CCOCC1` [Gefitinib, gefitinib], for which the CC50 in “in vitro” amounted to 10.6 µM.

For `Cc1cn(-c2cc(NC(=O)c3ccc(C)c(Nc4nccc(-c5cnccn5)n4)c3)cc(C(F)(F)F)c2)cn1` [Rodotinib, radotinib], in the data set “in vitro”, the CC50 was greater than 2.5 µM. The same compound registered an EC50 with HCVcc [1] (Huh7.5) of 0.04 µM.

In turn, `Cc1ccc(C(=O)Nc2ccc(CN3CCN(C)CC3)c(C(F)(F)F)c2)cc1C#Cc1cnc2cccnn12` [Ponatinib, ponatinib] returned an EC50 in the data set on HCVcc [1] (Huh7.5) of 0.05 µM.

For `Cc1nc(Nc2ncc(C(=O)Nc3c(C)cccc3Cl)s2)cc(N2CCN(CCO)CC2)n1` [Dasatinib, dasatinib], the CC50 in “in vitro” amounted to 18.7 µM. In the data set with HCVcc [1], the CC50/EC50 is listed as 12.65. In the data set on HCVcc [1] (Huh7.5), this compound returned an EC50 of 1.48 µM.

Consider `CCN(CC)CCNC(=O)c1c(C)[nH]c(/C=C2\C(=O)Nc3ccc(F)cc32)c1C` [Sunitinib, sunitinib], for which the CC50 in the data set “in vitro” was determined as 3.54 µM. In the data set with HCVcc [1] (Huh7.5), the EC50 was 0.94 µM. In the data set with HCVcc [1] (setting [4]), the CC50/EC50 was 3.77.

In turn, `CNC(=O)c1cc(Oc2ccc(NC(=O)Nc3ccc(Cl)c(C(F)(F)F)c3)cc2)ccn1` [Sorafenib, sorafenib] showed a CC50 in “in vitro” of 5.75 µM. Moreover, the concentration for a half-maximal effect (EC50) in the data set with HCVcc [1] (Huh7.5) was found to be 0.47 µM. The CC50/EC50 in the data set with HCVcc [1] (setting [4]) turned out to be 12.23.
